Like-named read-outs stand apart in the source and are kept apart here.
Test: Pharmacokinetics study of KPT-335 in cats (i.v. injection, p.o. capsules and tablets; UPLC-MS/MS, non-compartmental analysis)
Type: in vivo
Details: both sexes, cat, plasma, cats
Protocol: In this study, a parallel trial design was employed, 42 adult domestic cats (21 males and 21 females), aged 1 to 2 years and weighing 2.5 ± 0.25 kg. Cats were grouped by random number, with half male and female in each group, and all cats were determined to be systemically healthy during an initial screening visit 1 week prior to the experiment. They were acclimatized to the laboratory environment for 7 days before the study commenced. During this period, they were kept in solitary cages with free access to water. Cats in the fasting group were deprived of food for 12 h prior to and 2 h following drug administration, while those in the feeding group were fed twice a day. Food and water sources were consistent throughout the trail. During and at the end of the experiment, we systematically assessed the adverse reactions by recording parameters such as body weight, behavior, and coat gloss in all test cats both before and after the trial. These observations were conducted to evaluate whether any adverse reactions occurred. All procedures were reviewed and approved by the Institutional Animal Care and Use Committee of China Agricultural University (11305-23-E-002).
The UPLC-MS/MS system utilized a UPLC 1290 (Agilent) paired with a Phenomenex Kinetex C18 column (50 mm × 2.1 mm, 2.6 μm) for separation at a flow rate of 0.3 mL/min. The chromatographic mobile phase comprised water (A) and acetonitrile (B), both containing 0.1% formic acid. The gradient elution program was as follows: from 0.5 to 2.5 min, 10 to 95% B; from 2.5 to 4.5 min, 95% B; from 4.5 to 4.6 min, 95 to 10% B; and from 4.6 to 6.0 min, 10% B. The injection volume was 2 μL.
For mass spectrometry, an Agilent 6,475-LC-TQ equipped with an electrospray ion source was used. Multiple Reaction Monitoring (MRM) was selected to quantify KPT-335 in the positive ion mode. The ion transitions monitored were m/z 443.1 → 334.0 and 443.1 → 110.1 for KPT-335, and m/z 444.1 → 334.0 for the internal standard (IS). The cone voltage and collision energy were optimized for KPT-335 and the IS individually, set at 160 V and 25 eV, respectively. The optimized parameters for the instrument included an ion source temperature of 350°C, solvent removal temperature of 320°C, capillary voltage of 3.0 kV, and a solvent gas flow rate of 300 L/h.
The method was developed based on prior research conducted in the laboratory ([16]) and validated in accordance with international guidelines ([17]). The calibration concentration range for KPT-335 spanned from 0.5 to 100 ng/mL, with a lower limit of quantification (LLOQ) set at 0.5 ng/mL. The squared correlation coefficient (R^2) values exceeded 0.999, indicating high linearity.
For sample preparation, 100 μL of plasma was mixed with 10 μL of internal standard (IS) and 900 μL of acetonitrile, followed by vortexing for 2 min. The mixture was then centrifuged at 13,400 × g at 4°C for 10 min. The supernatant was filtered through a 0.22 μm organic membrane, and the resulting sample was analyzed using UPLC-MS/MS.
Cats were divided into seven groups, with six cats in each group. In the intravenous (i.v.) group (Group 1), cats received an injection of KPT-335 at a dosage of 1 mg/kg body weight (BW), administered via a bolus through a venous infusion needle. For the oral (p.o.) administration, cats were given capsules in a fasting state at doses of 0.2 mg/kg BW (Group 2), 1 mg/kg BW (Group 3), and 2 mg/kg BW (Group 4). Additionally, tablets were administered at 1 mg/kg BW (fasting, Group 5), 1 mg/kg BW (Group 6), and 2 mg/kg BW (Group 7) in a feeding state, followed by 3 mL of water delivered with a syringe.
For the p.o. administration, blood samples of 1.5 mL were collected via the brachial cephalic vein prior to administration and at 0.167, 0.333, 0.5, 0.75, 1, 1.5, 2, 4, 6, 8, 12, 24, 32, and 48 h post-administration. […]

[1] = iv, 1 mg/kg, i.v. 1 mg/kg BW, mean, read-out: Plasma concentration Mean
[2] = iv, 1 mg/kg, i.v. 1 mg/kg BW, mean
[3] = po, 0.2 mg/kg, capsule p.o. 0.2 mg/kg BW, mean, read-out: Plasma concentration Mean
[4] = po, 0.2 mg/kg, capsule p.o. 0.2 mg/kg BW, mean
[5] = po, 1 mg/kg, capsule p.o. 1 mg/kg BW, mean, read-out: Plasma concentration Mean
[6] = po, 1 mg/kg, capsule p.o. 1 mg/kg BW, mean
[7] = po, 1 mg/kg, capsule p.o. 1 mg/kg BW, individual cats 1-6, read-out: Plasma concentration
[8] = po, 1 mg/kg, tablet p.o. 1 mg/kg BW after fasting, individual cats 1-6, read-out: Plasma concentration
[9] = po, 1 mg/kg, tablet p.o. 1 mg/kg BW after fasting, mean, read-out: Plasma concentration Mean
[10] = po, 1 mg/kg, tablet p.o. 1 mg/kg BW after fasting, mean

With O=C(/C=C\n1cnc(-c2cc(C(F)(F)F)cc(C(F)(F)F)c2)n1)NNc1ccccn1 [KPT-335] the concentration at 0.083 h (iv, 1 mg/kg, i.v. 1 mg/kg BW, 0.083 h, mean) was 844 ng/mL, the concentration at 0.167 h [1] was 812 ng/mL and the concentration at 0.25 h (iv, 1 mg/kg, i.v. 1 mg/kg BW, 0.25 h, mean) was 767 ng/mL. The concentration at 0.33 h [2] was 733 ng/mL, the concentration at 0.5 h [2] was 667 ng/mL and the concentration at 0.75 h [2] was 526 ng/mL. It also gave a concentration at 1 h [1] of 531 ng/mL, a concentration at 2 h [1] of 441 ng/mL and a concentration at 4 h [1] of 255 ng/mL. It also gave a concentration at 8 h [2] of 95.9 ng/mL, a concentration at 12 h [2] of 39.5 ng/mL and a concentration at 24 h [2] of 10.2 ng/mL. The concentration at 32 h [2] was 4.86 ng/mL, the half-life (other: i.v. and p.o., i.v. and p.o. routes, all groups, read-out: half-life (T1/2), range over all groups) was 3.5 to 7 h and the concentration at 0.167 h [3] was 1.34 ng/mL. It also gave a concentration at 0.33 h [4] of 6.56 ng/mL, a concentration at 0.5 h [4] of 13.6 ng/mL and a concentration at 0.75 h [4] of 20.8 ng/mL. It also gave a concentration at 1 h [3] of 21.5 ng/mL, a concentration at 1.5 h [3] of 22.9 ng/mL and a concentration at 2 h [3] of 22.4 ng/mL. For the same compound, the concentration at 4 h [3] was 17.9 ng/mL, the concentration at 6 h [4] was 15.5 ng/mL and the concentration at 8 h [4] was 13.9 ng/mL. For the same compound, the concentration at 12 h [4] was 9.36 ng/mL, the concentration at 24 h [4] was 3.49 ng/mL and the concentration at 32 h [4] was 3.58 ng/mL. It also gave a concentration at 0.167 h [5] of 4.97 ng/mL, a concentration at 0.33 h [6] of 39.5 ng/mL and a concentration at 0.5 h [6] of 100 ng/mL. For the same compound, the concentration at 0.75 h [6] was 174 ng/mL, the concentration at 1 h [7] was 161 ng/mL and the concentration at 1 h [5] was 233 ng/mL. The concentration at 1.5 h [5] was 250 ng/mL, the concentration at 2 h [5] was 227 ng/mL and the concentration at 4 h [5] was 153 ng/mL. It also gave a concentration at 6 h [6] of 79.2 ng/mL, a concentration at 8 h [6] of 53.1 ng/mL and a concentration at 12 h [6] of 24.6 ng/mL. For the same compound, the concentration at 24 h [6] was 5.57 ng/mL, the concentration at 32 h [6] was 1.82 ng/mL and the concentration at 48 h [7] was 0.69 ng/mL. The concentration at 48 h [5] was 0.84 ng/mL, the AUC(0-t) (po, 1 mg/kg, p.o., Tablet, Feeding, 1 mg/kg BW, read-out: AUClast) was 2270 ± 1250 ng·h/mL and the concentration at 0.167 h [8] was 5.51 ng/mL. The concentration at 0.167 h [9] was 5.66 ng/mL, the concentration at 0.33 h [10] was 77.5 ng/mL and the concentration at 0.5 h [10] was 204 ng/mL. It also gave a concentration at 0.75 h [10] of 223 ng/mL, a concentration at 1 h [9] of 227 ng/mL and a concentration at 1.5 h [9] of 235 ng/mL. It also gave a concentration at 2 h [8] of 208 ng/mL, a concentration at 2 h [9] of 216 ng/mL and a concentration at 4 h [8] of 209 ng/mL. For the same compound, the concentration at 4 h [9] was 187 ng/mL, the concentration at 6 h [10] was 154 ng/mL and the concentration at 8 h [10] was 121 ng/mL. For the same compound, the concentration at 12 h [10] was 74.1 ng/mL and the concentration at 24 h [10] was 15.5 ng/mL.
